System: SW480
Test: Cytotoxicity against human SW480 cells by MTT assay
Type: functional, cell-based

## CC(C)[C@@H](C)/C=C/[C@@H](C)[C@H]1CCC2=C3C=CC4=CC(=O)CC[C@]4(C)[C@@]3(O)[C@H](O)C[C@@]21C
  IC50: 10 µM
